These are literature values, as cited in Sander's compilation of Henry's law constants (doi:10.1016/0045-6535(88)90142-7).

This data set is described as follows: Henry solubility constant Hcp at 298.15 K (mol/(m3 Pa)). Conditions: reference: Ryan et al. (1988); cited value.
Take `Clc1ccc(Cl)cc1` [1,4-dichlorobenzene]: the “Henry solubility constant Hcp” value was 0.0041.

For `Cc1ccc(O)c(C)c1` [1-hydroxy-2,4-dimethylbenzene], the “Henry solubility constant Hcp” value is 0.54.

As to `ClCCl` [dichloromethane], the “Henry solubility constant Hcp” value is 0.0047.

As for `c1ccc2c(c1)ccc1ccccc12` [phenanthrene], the “Henry solubility constant Hcp” value is 0.25.

Regarding `C=CCl` [chloroethene], the “Henry solubility constant Hcp” value is 0.00065.

For `ClC1=C(Cl)C2(Cl)C3C4OC4C(Cl)C3C1(Cl)C2(Cl)Cl` (stereo not drawn) [heptachlorepoxide], the “Henry solubility constant Hcp” value is 13.

For `c1ccc2c(c1)-c1cccc3cccc-2c13` [benzo[jk]fluorene], the “Henry solubility constant Hcp” value is 1.

Turning to `CCCCOC(=O)c1ccccc1C(=O)OCc1ccccc1` [butyl benzyl phthalate], the “Henry solubility constant Hcp” value was 9.6.

As for `ClC(Cl)=C(Cl)Cl` [tetrachloroethene], the “Henry solubility constant Hcp” value was 0.00063.

Turning to `c1ccc2c(c1)Cc1ccccc1-2` [2,3-benzindene], the “Henry solubility constant Hcp” value was 0.084.

On to `c1ccccc1` [benzene], for which the “Henry solubility constant Hcp” value is 0.0018.

For the compound `ClC1=C(Cl)[C@]2(Cl)C3C(Cl)C(Cl)CC3[C@@]1(Cl)C2(Cl)Cl` (stereo partly drawn) [chlordane], the “Henry solubility constant Hcp” value was 0.1.

For `Clc1ccc(C(c2ccc(Cl)cc2)C(Cl)Cl)cc1` [1,1-dichloro-2,2-bis-(4-chlorophenyl)-ethane], the “Henry solubility constant Hcp” value was 0.00081.

With `O=[N+]([O-])c1ccccc1O` [2-nitrophenol], the “Henry solubility constant Hcp” value is 1.3.

Consider `c1cc2c3c(cccc3c1)CC2` [acenaphthene], for which the “Henry solubility constant Hcp” value is 0.04.

Take `ClC(Cl)(Cl)C(Cl)(Cl)Cl` [hexachloroethane]: the “Henry solubility constant Hcp” value was 0.00098.

For `CCc1ccccc1` [ethylbenzene], the “Henry solubility constant Hcp” value was 0.0016.

On to `COC(=O)c1ccccc1C(=O)OC` [dimethyl phthalate], for which the “Henry solubility constant Hcp” value was 50.

On to `C1=Cc2cccc3cccc1c23` [acenaphthylene], for which the “Henry solubility constant Hcp” value was 0.084.

`c1ccc2c(c1)cc1ccc3cccc4ccc2c1c34` [benzo[a]pyrene]: the “Henry solubility constant Hcp” value is 0.00082.

As to `C=CC#N` [2-propenenitrile], the “Henry solubility constant Hcp” value was 0.11.

As for `CCCCC(CC)COC(=O)c1ccccc1C(=O)OCC(CC)CCCC` (stereo not drawn) [bis(2-ethylhexyl)-phthalate], the “Henry solubility constant Hcp” value was 34.

For the compound `CC(Cl)CCl` (stereo not drawn) [1,2-dichloropropane], the “Henry solubility constant Hcp” value was 0.0034.

As to `ClC(Cl)(Cl)Cl` [tetrachloromethane], the “Henry solubility constant Hcp” value was 0.00045.

Turning to `c1ccc2cc3ccccc3cc2c1` [anthracene], the “Henry solubility constant Hcp” value was 0.037.

Turning to `CC(CCl)OC(C)CCl` (stereo not drawn) [bis-(2-chloroisopropyl) ether], the “Henry solubility constant Hcp” value was 0.0086.

For the compound `ClC(Cl)=C(c1ccc(Cl)cc1)c1ccc(Cl)cc1` [1,1-dichloro-2,2-bis-(4-chlorophenyl)-ethene], the “Henry solubility constant Hcp” value is 0.45.

As to `Clc1ccc2ccccc2c1` [2-chloronaphthalene], the “Henry solubility constant Hcp” value was 0.031.

On to `Cc1ccccc1` [methylbenzene], for which the “Henry solubility constant Hcp” value is 0.0014.

Consider `ClC1=C(Cl)C(Cl)(Cl)C(Cl)=C1Cl` [hexachlorocyclopentadiene], for which the “Henry solubility constant Hcp” value is 0.00027.

Consider `ClCC(Cl)Cl` [1,1,2-trichloroethane], for which the “Henry solubility constant Hcp” value is 0.0013.

For the compound `ClC1C(Cl)C(Cl)C(Cl)C(Cl)C1Cl` (stereo not drawn) [β-1,2,3,4,5,6-hexachlorocyclohexane], the “Henry solubility constant Hcp” value was 0.67.

For the compound `ClC(Cl)C(Cl)Cl` [1,1,2,2-tetrachloroethane], the “Henry solubility constant Hcp” value is 0.025.

Turning to `ClCCOCCCl` [1,5-dichloro-3-oxapentane], the “Henry solubility constant Hcp” value was 8.6.

For the compound `CCCCOC(=O)c1ccccc1C(=O)OCCCC` [dibutyl phthalate], the “Henry solubility constant Hcp” value was 34.

As for `ClCCOCOCCCl` [bis-(2-chloroethoxy)-methane], the “Henry solubility constant Hcp” value was 37.

As to `c1ccc2c(c1)ccc1c3ccccc3ccc21` [chrysene], the “Henry solubility constant Hcp” value is 0.0046.

For the compound `Clc1ccc(C(c2ccc(Cl)cc2)C(Cl)(Cl)Cl)cc1` [1,1,1-trichloro-2,2-bis-(4-chlorophenyl)-ethane], the “Henry solubility constant Hcp” value is 0.2.

For `ClC=CCCl` [1,3-dichloropropene], the “Henry solubility constant Hcp” value was 0.0081.

With `ClC1=C(Cl)C2(Cl)C3C(Cl)C=CC3C1(Cl)C2(Cl)Cl` (stereo not drawn) [heptachlor], the “Henry solubility constant Hcp” value is 0.0065.

In the case of `Oc1ccccc1Cl` [2-hydroxychlorobenzene], the “Henry solubility constant Hcp” value was 2.1.

On to `ClC1=C(Cl)[C@]2(Cl)[C@H]3[C@H]([C@@H]4C=C[C@H]3C4)[C@@]1(Cl)C2(Cl)Cl` [aldrin], for which the “Henry solubility constant Hcp” value is 0.82.

For the compound `ClC1=C(Cl)[C@]2(Cl)[C@@H]3[C@@H]4C[C@@H]([C@H]5O[C@@H]45)[C@@H]3[C@@]1(Cl)C2(Cl)Cl` [dieldrin], the “Henry solubility constant Hcp” value was 1.3.

Take `Cc1cc(O)ccc1Cl` [4-chloro-3-methylphenol]: the “Henry solubility constant Hcp” value was 4.

Regarding `CC(Cl)(Cl)Cl` [1,1,1-trichloroethane], the “Henry solubility constant Hcp” value was 0.00031.

`CCCCCCCCOC(=O)c1ccccc1C(=O)OCCCCCCCC` [dioctyl phthalate]: the “Henry solubility constant Hcp” value was 34.

Consider `ClC1=C(Cl)[C@]2(Cl)[C@@H]3[C@H]4C[C@H]([C@@H]5O[C@H]45)[C@@H]3[C@@]1(Cl)C2(Cl)Cl` [endrin], for which the “Henry solubility constant Hcp” value is 24.

Consider `O=[N+]([O-])c1ccc(O)cc1` [4-nitrophenol], for which the “Henry solubility constant Hcp” value was 1.6.

Regarding `O=[N+]([O-])c1ccccc1` [nitrobenzene], the “Henry solubility constant Hcp” value was 0.75.

Turning to `BrC(Br)Br` [tribromomethane], the “Henry solubility constant Hcp” value is 0.017.

`Clc1ccccc1` [chlorobenzene]: the “Henry solubility constant Hcp” value was 0.0027.

With `CCCl` [chloroethane], the “Henry solubility constant Hcp” value was 0.00066.

For the compound `ClC(Cl)=C(Cl)C(Cl)=C(Cl)Cl` [hexachlorobutadiene], the “Henry solubility constant Hcp” value is 0.00094.

Consider `Clc1cccc(Cl)c1` [1,3-dichlorobenzene], for which the “Henry solubility constant Hcp” value was 0.0037.

In the case of `ClCOCCl` [bis-(chloromethyl) ether], the “Henry solubility constant Hcp” value was 0.0047.

As for `ClC=C(Cl)Cl` [trichloroethene], the “Henry solubility constant Hcp” value is 0.0011.

In the case of `FC(F)(Cl)Cl` [dichlorodifluoromethane], the “Henry solubility constant Hcp” value was 6.4e-06.

As to `C=C(Cl)Cl` [1,1-dichloroethene], the “Henry solubility constant Hcp” value was 0.0022.

`Oc1ccc(Cl)cc1Cl` [2,4-dichlorophenol]: the “Henry solubility constant Hcp” value is 1.8.

Take `CCBr` [bromoethane]: the “Henry solubility constant Hcp” value is 9.2e-05.

For `c1ccc2ccccc2c1` [naphthalene], the “Henry solubility constant Hcp” value is 0.02.

On to `O=[N+]([O-])c1ccc(O)c([N+](=O)[O-])c1` [2,4-dinitrophenol], for which the “Henry solubility constant Hcp” value is 15000.

Take `C=CC=O` [propenal]: the “Henry solubility constant Hcp” value is 0.14.
